One assay concerns SEM B-ALL cell line. Put plainly: Cytotoxicity assay, SEM. The following applies: Homo sapiens, 96 h, four days in culture, Alamar blue assay or automated microscopy, ± SD, three experiments. It is filed as cell-based. The method in brief:
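Cells (1×10^4/well) exposed to inhibitor, 1×10^−6 to 10 µM final, in triplicate for 4 days in Opti-MEM with 10% FBS at 37°C. Survival read by Alamar blue absorbance (570–620 nm) or bright-field direct cell counting, expressed as percent of vehicle (DMSO) control.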
(In general: Resazurin is reduced to fluorescent resorufin, in cell work by metabolically active cells.)

Another assay relates to phospho-Aurora-A/B/C. The experiment in a line: Western blot of Aurora kinase phosphorylation in leukemia cell lines. Format: cell-based, human. The procedure:
(§1) Following desired experimental conditions, cells were harvested and centrifuged at 1200 rpm at 4°C for 5 minutes. After removal of supernatant, cells were washed in cold PBS. Following an additional centrifugation step, supernatant was removed and the pellet was re-suspended in radioimmunoprecipitation assay (RIPA) buffer (50 mM Tris-HCl (pH 8), 150 mM NaCl, 1% NP-40, 0.5% sodium deoxycholate; 0.1% sodium dodecyl sulphate (SDS)) supplemented with 1% phosphatase inhibitor (Sigma-Aldrich), 1% protease inhibitor (Sigma-Aldrich) and 1% sodium orthovanadate (Alfa Aesar, Ward Hill, Massachusetts). Samples were transferred to Eppendorf tubes, left on ice for 10 minutes, vortexed and then centrifuged at 14 000 rpm for 10 minutes.
To begin, the protein content of the lysates was measured using the Bicinchoninic Acid (BCA) Protein Assay Kit (Pierce, Rockford, Illinois), which included a protein standard curve generated with bovine serum albumin. Appropriate volumes of samples and loading buffer (50 mM Tris-HCl (pH 6.8), 2% SDS, 10% glycerol, 1% β-mercaptoethanol, 12.5 mM EDTA, 0.02% bromophenol blue) were mixed, ensuring that equal amounts of protein were loaded (30 µg of protein per well). Samples were then resolved on SDS-PAGE using various percentages of acrylamide gels (8%–12%), depending on the proteins of interest. SDS-PAGE was run in SDS running buffer (25 mM Tris, 192 mM glycine, 0.1% SDS) and then transferred to nitrocellulose membranes in transfer buffer (48 mM Tris, 39 mM glycine, 20% (v/v) methanol) at 100 volts for 2 hours at 4°C. Immunoblots were then blocked in 5% skim milk in tris-buffered saline with 0.1% Tween-20 (TBS-T; 50 mM Tris-HCl, pH 7.5, 150 mM NaCl, 0.1% (v/v) Tween-20 (Sigma-Aldrich)) for 1 to 2 hours. Immunoblots were then incubated with selected primary antibodies diluted in TBS-T with 0.1% gelatin (Bio-Rad, Mississauga, Ontario) and 0.05% sodium azide (Sigma-Aldrich) overnight. Primary antibodies included: Aurora-A (Cell Signalling, Danvers, Massachusetts; 1∶1000), Aurora-B (Cell Signalling, 1∶1000), phospho-Aurora-A/B/C (Cell Signalling, 1∶1000), caspase 7 (Cell Signalling, 1∶1000), PARP (Cell Signalling, 1∶2000) and β-Actin (Sigma-Aldrich, 1∶10000). Following washes with TBT-T 4 times for 8 to 10 minutes, immunoblots were incubated with appropriate secondary antibodies conjugated to horseradish peroxidise (Sigma-Aldrich) diluted in TBS-T plus 5% skim milk at a ratio of 1∶5000 for 2 hours at room temperature. After an additional round of washes in TBS-T, immunoblots were exposed to combined enhanced chemiluminescence (ECL) reagents (Reagent 1: 100 mM Tris-HCl (pH 8.5), 5.4 mM hydrogen peroxide; Reagent 2: 100 mM Tris-HCl (pH 8.5), 2.5 mM luminol, 0.4 mM p-coumaric acid) for 1 minute and developed by exposure to X-ray film (Christie InnoMed, Montreal, Quebec).
Leukemia cells were plated in a 6 well plate (BD Biosciences) at a concentration of 1×10^6 cells per well in a volume of 500 µl of Opti-MEM supplemented with FBS and antibiotics. Next, Silencer Select Negative Control Number 1 siRNA (Invitrogen), Aurora kinase A siRNA (s196, Invitrogen) and Aurora kinase B siRNA (s17611, Invitrogen) were diluted in individual tubes (BD Biosciences) to a final concentration of 30 nM in 500 µl Opti-MEM without supplements. Following, HiPerfect Transfection Reagent (Qiagen, Toronto, Ontario) was added to the diluted siRNA at a ratio of 3∶100 and the samples were left at room temperature for 10 minutes to allow for the formation of transfection complexes. The transfection complexes were then added to the cells at a volume of 500 µl per well and the plates were placed in the incubator for 6 hours. After incubation, 1.4 ml of Opti-MEM plus supplements were added to each well, for a total volume 2.4 ml per well. The cells were returned to the incubator for an additional 48 or 72 hours and then processed for immunoblotting.
A general note: A western blot detects proteins with antibodies after separation by electrophoresis.

The subject of assay [1] is cleavage of PARP and caspase 7. Put plainly: Western blot of apoptotic markers in leukemia cell lines. It is filed as cell-based, human. The note with it: 2, 4, 6, 12 and 24 hours, C1, SEM, KOPN8, TIB-202. On the procedure:
as §1
To begin, the protein content of the lysates was measured using the Bicinchoninic Acid (BCA) Protein Assay Kit (Pierce, Rockford, Illinois), which included a protein standard curve generated with bovine serum albumin. Appropriate volumes of samples and loading buffer (50 mM Tris-HCl (pH 6.8), 2% SDS, 10% glycerol, 1% β-mercaptoethanol, 12.5 mM EDTA, 0.02% bromophenol blue) were mixed, ensuring that equal amounts of protein were loaded (30 µg of protein per well). Samples were then resolved on SDS-PAGE using various percentages of acrylamide gels (8%–12%), depending on the proteins of interest. SDS-PAGE was run in SDS running buffer (25 mM Tris, 192 mM glycine, 0.1% SDS) and then transferred to nitrocellulose membranes in transfer buffer (48 mM Tris, 39 mM glycine, 20% (v/v) methanol) at 100 volts for 2 hours at 4°C. Immunoblots were then blocked in 5% skim milk in tris-buffered saline with 0.1% Tween-20 (TBS-T; 50 mM Tris-HCl, pH 7.5, 150 mM NaCl, 0.1% (v/v) Tween-20 (Sigma-Aldrich)) for 1 to 2 hours. Immunoblots were then incubated with selected primary antibodies diluted in TBS-T with 0.1% gelatin (Bio-Rad, Mississauga, Ontario) and 0.05% sodium azide (Sigma-Aldrich) overnight. […]

The next assay concerns Aurora-A. On the set-up: method as in earlier work. The note with it: literature values; ref [10],[22],[27],[40],[44]–[64] as listed per inhibitor in Table 1; read-out: Targets (IC50 Value): Aurora-A; cited from earlier work.

`O=C(Nc1c[nH]nc1-c1nc2ccc(CN3CCOCC3)cc2[nH]1)NC1CC1` [AT9283]: in the assay on SEM B-ALL cell line, the half-inhibitory concentration (IC50) (as a rule, the point on the concentration scale where inhibition reaches its midpoint) amounted to 40 ± 20 nM.
For `CCN1CCN(C(=O)Cc2ccc(Nc3ncc(F)c(Nc4ccc(C(=O)Nc5ccccc5Cl)cc4)n3)cc2)CC1` [Aurora A Inhibitor I], in the assay with phospho-Aurora-A/B/C (1 µM for 12 h, TIB-202, Lanes 3 and 6 of Figure 8), the “phosphorylation of Aurora kinases, inhibitor alone, TIB-202” value was “promoted dephosphorylation of Aurora-A and increased phosphorylation of Aurora-B and Aurora-C”. Also, the “phosphorylation of Aurora-A, time course, C1” value with phospho-Aurora-A/B/C (1 µM, 2, 4, 6, 12 and 24 hours, C1) is “slight increase in phosphorylation of Aurora-A at 12 and 24 hours”. Besides, in the assay on phospho-Aurora-A/B/C (1 µM, 2, 4, 6, 12 and 24 hours, C1, SEM, KOPN8, TIB-202), the “phosphorylation of Aurora-B and Aurora-C, time course” value was “gradual increase in phosphorylation of Aurora-B and Aurora-C compared to vehicle control starting at 2 hours for SEM and KOPN8, 4 hours for TIB-202 and 6 hours for C1”. In addition, the “phosphorylation of Aurora-A, time course, SEM, KOPN8, TIB-202” value in the assay with phospho-Aurora-A/B/C (1 µM, 2, 4, 6, 12 and 24 hours, SEM, KOPN8, TIB-202) is “initial decrease, followed by a subsequent increase in phosphorylation of Aurora-A was apparent, starting at 6 hours for SEM and at 4 hours for KOPN8 and TIB-202”. Besides, the “phosphorylation of Aurora kinases, inhibitor after Aurora-B siRNA” value in the assay with phospho-Aurora-A/B/C (Aurora-B siRNA 60 hours, then 1 µM for 12 h, SEM and TIB-202, Lane 5) is given as “decrease in phosphorylation of all three isoforms compared to treatment with Aurora A Inhibitor I alone or Aurora-B siRNA alone”. In assay [1] (1 µM), the “cleavage of caspase 7, time course” value was “cleavage of caspase 7 beginning at 4 hours for TIB-202 and at 12 hours for the remaining cell lines”. Besides, in the assay on Aurora-A, the IC50 is 3 nM.
`CCS(=O)(=O)Nc1ccc2c(c1)/C(=C(/Nc1ccc(CN3CCCCC3)cc1)c1ccccc1)C(=O)N2` [Hesperadin] registered a half-inhibitory concentration (IC50) in the assay with SEM B-ALL cell line of 1 ± 0.5 nM. Besides, the “phosphorylation of Aurora-B, inhibitor alone” value in the assay with phospho-Aurora-A/B/C (0.1 µM for 12 hours, SEM and TIB-202, Lanes 3 and 6 of Figure 7) is reported as “promoted dephosphorylation of Aurora-B”. In the assay on phospho-Aurora-A/B/C (0.1 µM, 2, 4, 6, 12 and 24 hours, C1, SEM, KOPN8, TIB-202), the “phosphorylation of Aurora-A, time course” value is “remained phosphorylated in all of the cell lines throughout the duration of treatment, with a slight increase in activity at 12 and 24 hours”. In the assay with phospho-Aurora-A/B/C (0.1 µM, 2, 4, 6, 12 and 24 hours, C1 and TIB-202), the “phosphorylation of Aurora-B and Aurora-C, time course, C1 and TIB-202” value was “Dephosphorylation of Aurora-B and Aurora-C was initiated at 2 hours in C1 and TIB-202 and maintained for the duration of the treatment”. The “phosphorylation of Aurora-B, time course, SEM and KOPN8” value in the assay with phospho-Aurora-A/B/C (0.1 µM, 2, 4, 6, 12 and 24 hours, SEM and KOPN8) is “dephosphorylation of Aurora-B was initiated at 2 hours in SEM and KOPN8 and maintained until 24 hours”. Further, in the assay with phospho-Aurora-A/B/C (Aurora-A siRNA 60 hours, then 0.1 µM for 12 hours, SEM and TIB-202, Lane 5), the “phosphorylation of Aurora-B and Aurora-C, inhibitor after Aurora-A siRNA” value was “decrease in phosphorylation of Aurora-B and Aurora-C compared to silencing of Aurora-A alone”. Further, in assay [1] (0.1 µM), the “cleavage of PARP, time course” value is recorded as “cleavage of PARP in all four cell lines starting at 12 hours”; the “cleavage of caspase 7, time course” value was “cleavage of caspase 7 beginning at 4 hours for C1 and at 12 hours for the remaining cell lines”.

Source of the values: paper PMC4105567, “Aurora Kinases as Druggable Targets in Pediatric Leukemia: Heterogeneity in Target Modulation Activities and Cytotoxicity by Diverse Novel Therapeutic Agents” (PLoS ONE, 2014).
